Measured values taken from ChEMBL document CHEMBL5726294, “Derivatives of 6-(2,3-dichlorophenyl)-1,2,4-triazin-5-amine” (2019).
Several values for one entry are separate records, joined by “and”; a condition that tells them apart may be missing. Equal values may be shown once.

Assays:
[1] = biological target: T1, Sodium channel protein type 9 subunit alpha (Homo sapiens, UniProt Q15858); assay: (§1) Ex-Vivo Potencies in Inactivated state: The potencies of the compounds provided herein to block specific Na+ channels was measured using automated patch clamp electrophysiologically of Nav1.7 sodium channels (human SCN9A gene) stably expressed in CHO cells using the IonWorks Barracuda system. Currents were measured from the whole cell patch configuration. From a holding potential of −90 mV, membranes were subjected to a 200 ms pre-pulse to −120 mV, then pulsed to 0 mV to measure blockade of the tonic (resting) state. Inactivated state block was elicited by repolarization to −100 mV (20 ms pulse duration), followed by depolarization to 0 mV (20 ms pulse duration). Peak inward Na+ currents were measured in the presence of vehicle or various concentrations of the test compound to determine the percent block of current.; type: cell-based
[2] = biological target: T1, Sodium channel protein type 9 subunit alpha; assay: as §1, with “in Tonic” for “in Inactivated”; type: cell-based

T1 sequence (Q15858 whole entry): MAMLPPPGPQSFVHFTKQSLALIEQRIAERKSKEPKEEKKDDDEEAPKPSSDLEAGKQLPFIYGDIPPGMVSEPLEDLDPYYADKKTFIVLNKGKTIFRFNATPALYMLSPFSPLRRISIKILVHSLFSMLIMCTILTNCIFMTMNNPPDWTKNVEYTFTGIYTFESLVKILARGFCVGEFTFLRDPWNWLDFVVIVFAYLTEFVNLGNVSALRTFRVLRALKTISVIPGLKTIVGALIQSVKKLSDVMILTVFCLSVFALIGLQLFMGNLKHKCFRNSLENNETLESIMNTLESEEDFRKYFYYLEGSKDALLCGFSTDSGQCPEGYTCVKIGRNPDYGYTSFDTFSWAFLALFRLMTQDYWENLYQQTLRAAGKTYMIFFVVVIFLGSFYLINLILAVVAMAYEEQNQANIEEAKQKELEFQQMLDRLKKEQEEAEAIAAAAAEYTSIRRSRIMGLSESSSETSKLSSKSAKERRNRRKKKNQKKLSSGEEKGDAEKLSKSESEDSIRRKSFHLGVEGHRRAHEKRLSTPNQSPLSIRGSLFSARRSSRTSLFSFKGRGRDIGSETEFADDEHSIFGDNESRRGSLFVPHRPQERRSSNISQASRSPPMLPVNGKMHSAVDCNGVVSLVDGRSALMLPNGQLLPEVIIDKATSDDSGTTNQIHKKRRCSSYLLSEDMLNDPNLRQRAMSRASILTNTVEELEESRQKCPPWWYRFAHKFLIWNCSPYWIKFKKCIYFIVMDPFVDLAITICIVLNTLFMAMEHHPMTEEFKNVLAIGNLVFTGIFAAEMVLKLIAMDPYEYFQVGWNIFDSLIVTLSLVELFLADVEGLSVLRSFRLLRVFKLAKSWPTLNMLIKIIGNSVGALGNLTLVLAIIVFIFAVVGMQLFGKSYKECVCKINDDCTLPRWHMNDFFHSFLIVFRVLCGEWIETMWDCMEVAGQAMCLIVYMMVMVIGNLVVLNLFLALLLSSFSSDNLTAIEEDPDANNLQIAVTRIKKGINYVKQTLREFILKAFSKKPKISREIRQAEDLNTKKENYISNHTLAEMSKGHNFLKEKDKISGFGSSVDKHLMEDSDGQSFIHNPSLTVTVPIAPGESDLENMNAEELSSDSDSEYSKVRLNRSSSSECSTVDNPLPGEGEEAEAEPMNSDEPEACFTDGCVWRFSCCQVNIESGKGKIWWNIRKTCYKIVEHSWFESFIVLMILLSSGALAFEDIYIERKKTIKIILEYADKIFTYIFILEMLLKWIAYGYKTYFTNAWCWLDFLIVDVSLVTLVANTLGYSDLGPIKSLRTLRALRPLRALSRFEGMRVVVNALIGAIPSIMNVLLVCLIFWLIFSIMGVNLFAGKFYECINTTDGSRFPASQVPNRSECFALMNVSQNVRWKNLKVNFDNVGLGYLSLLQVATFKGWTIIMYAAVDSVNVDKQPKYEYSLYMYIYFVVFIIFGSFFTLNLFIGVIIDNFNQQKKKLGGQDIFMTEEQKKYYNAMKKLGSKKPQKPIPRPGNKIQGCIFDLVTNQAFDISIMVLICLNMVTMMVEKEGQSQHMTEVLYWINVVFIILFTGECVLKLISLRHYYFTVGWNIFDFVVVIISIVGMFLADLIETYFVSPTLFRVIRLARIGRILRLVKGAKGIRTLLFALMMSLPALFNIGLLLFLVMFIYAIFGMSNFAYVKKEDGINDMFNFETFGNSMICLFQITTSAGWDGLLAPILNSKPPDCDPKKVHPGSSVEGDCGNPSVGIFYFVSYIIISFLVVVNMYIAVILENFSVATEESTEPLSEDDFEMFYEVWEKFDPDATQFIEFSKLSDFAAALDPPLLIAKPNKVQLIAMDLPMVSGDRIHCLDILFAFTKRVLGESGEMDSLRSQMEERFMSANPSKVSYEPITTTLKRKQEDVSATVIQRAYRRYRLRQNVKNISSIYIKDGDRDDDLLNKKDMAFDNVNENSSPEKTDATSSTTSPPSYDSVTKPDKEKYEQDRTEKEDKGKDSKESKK

Row | Compound | IC50 [1] | IC50 [2]
1 | COCCOCCOCCOc1ccc(-c2nnc(N)nc2N)c(Cl)c1Cl | > 300 µM | 
2 | Nc1nc(N2CCC(O)(C(F)(F)F)CC2)nnc1-c1cccc(Cl)c1Cl | 73.9 µM and 59.1 µM | > 200 µM and 165 µM
3 | COCCOCCOCC(C)Nc1nnc(-c2cccc(Cl)c2Cl)c(N)n1 (centres undefined) | < 50 µM | > 200 µM
4 | Nc1nc(N2CC(O)(C(F)(F)F)C2)nnc1-c1cccc(Cl)c1Cl | 291 µM and 249 µM | > 200 µM
5 | Nc1nc(N2CCN(C3CCNCC3)CC2)nnc1-c1cccc(Cl)c1Cl | 272 µM | > 200 µM
6 | C[C@@H]1CN(c2nnc(-c3cc(F)cc(Cl)c3Cl)c(N)n2)C[C@H](C)N1 | < 50 µM | 92.4 µM
7 | Nc1nc(N2CCNCC2)nnc1-c1cc(F)cc(Cl)c1Cl | 84.5 µM | > 200 µM
8 | COCCOCCOCCN1CCC(Nc2nnc(-c3cc(F)cc(Cl)c3Cl)c(N)n2)CC1 |  | > 200 µM
9 | Nc1nc(N2CCN[C@H](CO)C2)nnc1-c1cc(F)cc(Cl)c1Cl | 72.6 µM | > 200 µM
10 | COCCOCCOCCN1CCN(c2nnc(-c3cccc(Cl)c3Cl)c(N)n2)CC1 | 54.9 µM and < 50 µM | > 200 µM
11 | Nc1nc(N2CC(O)C2)nnc1-c1cccc(Cl)c1Cl |  | > 132 µM
12 | Nc1nc(N2CC(N)C2)nnc1-c1cccc(Cl)c1Cl | 284 µM | 
13 | Nc1nc(NCCOCCNCC(=O)O)nnc1-c1cccc(Cl)c1Cl | > 300 µM | 
14 | Nc1nc(N2CCN[C@@H](CO)C2)nnc1-c1cc(F)cc(Cl)c1Cl | 111 µM | > 200 µM
15 | COCCOCCOCC(=O)N1CCN(c2nnc(-c3cc(F)cc(Cl)c3Cl)c(N)n2)CC1 | 146 µM and 220 µM | > 200 µM
16 | Nc1nc(N2CCN[C@H](CO)C2)nnc1-c1cccc(Cl)c1Cl | 71.8 µM | > 200 µM
17 | COCCOCCOCCN(C)C1CCN(c2nnc(-c3cccc(Cl)c3Cl)c(N)n2)CC1 | < 50 µM | 92.5 µM
18 | CC(CO)Nc1nnc(-c2cccc(Cl)c2Cl)c(N)n1 (centres undefined) | 127 µM | > 200 µM
19 | Nc1nc(NC2CCNCC2)nnc1-c1cccc(Cl)c1Cl | > 300 µM | 
20 | Nc1nc(N2CCN(CC(O)CO)[C@H](CO)C2)nnc1-c1cccc(Cl)c1Cl (some centres undefined) | 293 µM and 243 µM | > 200 µM
21 | C[C@@H]1CN(c2nnc(-c3cccc(Cl)c3Cl)c(N)n2)C[C@H](C)N1 | < 50 µM | 112 µM
22 | Nc1nc(N2CCN(C3CCOCC3)CC2)nnc1-c1cccc(Cl)c1Cl | < 50 µM | 147 µM
23 | Nc1nc(N2CC(OCC(F)(F)F)C2)nnc1-c1cccc(Cl)c1Cl | > 300 µM | 
